Measurements reported in US11691962B2 (eXIthera Pharmaceuticals, Inc., priority 2018, dated 2023).

Tests used:
Format in all cases: biochemical
Factor XIa = Factor XIa (Homo sapiens (Human), UniProt P03951); assay: Factor XIa enzyme inhibition assay (dose response, fluorogenic AMC substrate); settings: read-out: hFXIa IC50
How it was run: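 Fluorogenic progress curves (30 min, 1-min reads, 30° C) were recorded for 0.25 nM FXIa cleaving 50 μM Glp-Pro-Arg-AMC in Hepes pH 7.4 buffer with NaCl and Tween 20. Compounds were serially two-fold diluted, and IC50 was fitted with a Hill equation.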

Thrombin = Thrombin (Homo sapiens (Human), UniProt P00734); assay: Dose response assay for protease inhibitors: thrombin; settings: selectivity, thrombin over Factor XIa
How it was run: (§1)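 Glp-Pro-Arg-AMC substrate (thrombin, trypsin) or Pro-Phe-Arg-AMC/Boc-Leu-Gly-Arg-AMC (Factor Xa), diluted to 100 μM, in 20 mM Hepes pH 7.4, 150 mM NaCl, 0.02% Tween 20; enzyme diluted to 0.5 nM before addition. Two-fold serial compound dilutions; kinetic reads at 30° C. Data yield IC50 and Kon.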

Trypsin = assay: Dose response assay for protease inhibitors: trypsin; settings: selectivity, trypsin over Factor XIa
How it was run: as §1

Factor Xa = Factor Xa (Homo sapiens (Human), UniProt P00742); assay: Dose response assay for protease inhibitors: Factor Xa; settings: selectivity, Factor Xa over Factor XIa
How it was run: as §1

Factor Xa, sequence (P00742 235-488): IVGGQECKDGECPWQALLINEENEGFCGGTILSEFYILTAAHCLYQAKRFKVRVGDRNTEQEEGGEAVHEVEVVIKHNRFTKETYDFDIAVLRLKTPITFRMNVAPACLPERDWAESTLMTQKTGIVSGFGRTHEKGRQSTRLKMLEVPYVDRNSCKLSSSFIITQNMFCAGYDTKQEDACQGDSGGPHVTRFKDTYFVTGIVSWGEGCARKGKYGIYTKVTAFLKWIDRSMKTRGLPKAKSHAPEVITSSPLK
Factor Xa, sequence (P00742 41-179 partner): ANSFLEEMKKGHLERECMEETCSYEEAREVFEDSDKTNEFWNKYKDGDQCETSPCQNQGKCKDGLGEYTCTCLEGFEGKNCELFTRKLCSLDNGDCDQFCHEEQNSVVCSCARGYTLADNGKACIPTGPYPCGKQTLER
Factor XIa, sequence (P03951 388-625): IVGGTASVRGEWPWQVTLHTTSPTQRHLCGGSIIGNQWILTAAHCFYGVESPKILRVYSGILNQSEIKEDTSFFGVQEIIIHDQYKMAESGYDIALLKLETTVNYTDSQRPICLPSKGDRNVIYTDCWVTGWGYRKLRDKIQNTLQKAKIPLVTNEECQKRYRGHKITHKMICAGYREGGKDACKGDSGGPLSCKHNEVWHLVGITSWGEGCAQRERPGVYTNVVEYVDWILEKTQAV
Factor XIa, sequence (P03951 19-387 partner): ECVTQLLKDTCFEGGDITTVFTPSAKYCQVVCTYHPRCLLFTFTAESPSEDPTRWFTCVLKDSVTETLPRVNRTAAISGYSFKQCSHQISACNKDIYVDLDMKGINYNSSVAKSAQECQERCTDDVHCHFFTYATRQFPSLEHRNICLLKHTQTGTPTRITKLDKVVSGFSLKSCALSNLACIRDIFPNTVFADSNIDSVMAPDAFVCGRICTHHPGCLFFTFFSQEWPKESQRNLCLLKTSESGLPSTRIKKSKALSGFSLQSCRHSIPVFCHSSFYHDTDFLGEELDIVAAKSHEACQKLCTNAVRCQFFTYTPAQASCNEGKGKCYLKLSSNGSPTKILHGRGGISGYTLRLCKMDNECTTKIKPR

Structure (SMILES)	IC50 (Factor XIa) [nM]	Ratio: Thrombin/FXIa (Thrombin)	Ratio: FXa/FXIa (Factor Xa)	Ratio: Trypsin/FXIa (Trypsin)
CC[C@@H](NC(=O)N1C(=O)[C@H](Cc2ccnc(N)c2)[C@H]1C(=O)N(C)c1nccn1C)c1ccc(C)cc1C [Compound 1-114, (2S,3R)-3-((2-aminopyridin-4-yl)methyl)-N2-(1-methyl-1H-imidazol-2-yl)-N1-((R)-1-(2,4-dimethylphenyl)propyl)-N2-methyl-4-oxoazetidine-1,2-dicarboxamide]	< 10	H (“H” indicates 101-1000)	H (“H” indicates 101-1000)	G (“G” indicates 1-100)
CC[C@@H](NC(=O)N1C(=O)[C@H](Cc2ccnc(N)c2)[C@H]1C(=O)N(C)c1ccn(C)n1)c1cc(F)ccc1F [Compound 1-123, (2S,3R)-3-((2-aminopyridin-4-yl)methyl)-N2-(1-methyl-1H-pyrazol-3-yl)-N1-((R)-1-(2,5-difluorophenyl)propyl)-N2-methyl-4-oxoazetidine-1,2-dicarboxamide]	< 10	H (“H” indicates 101-1000)	I (“I” indicates > 500)	G (“G” indicates 1-100)
CC[C@@H](NC(=O)N1C(=O)[C@H](Cc2ccnc(N)c2)[C@H]1C(=O)N(C)c1ccn(C)n1)c1cc(C)ccc1F [Compound 1-125, (2S,3R)-3-((2-aminopyridin-4-yl)methyl)-N2-(1-methyl-1H-pyrazol-3-yl)-N1-((R)-1-(2-fluoro-5-methylphenyl)propyl)-N2-methyl-4-oxoazetidine-1,2-dicarboxamide]	< 10	H (“H” indicates 101-1000)	I (“I” indicates > 500)	G (“G” indicates 1-100)
CC[C@@H](NC(=O)N1C(=O)[C@H](Cc2ccnc(N)c2)[C@H]1C(=O)N(C)c1ccn(C)n1)c1ccc(C)c(C)c1 [Compound 1-127, (2S,3R)-3-((2-aminopyridin-4-yl)methyl)-N2-(1-methyl-1H-pyrazol-3-yl)-N1-((R)-1-(3,4-dimethylphenyl)propyl)-N2-methyl-4-oxoazetidine-1,2-dicarboxamide]	< 10	H (“H” indicates 101-1000)	H (“H” indicates 101-1000)	G (“G” indicates 1-100)
CC[C@@H](NC(=O)N1C(=O)[C@H](Cc2ccnc(N)c2)[C@H]1C(=O)N(C)c1ccn(C)n1)c1cccc(F)c1C [Compound 1-128, (2S,3R)-3-((2-aminopyridin-4-yl)methyl)-N2-(1-methyl-1H-pyrazol-3-yl)-N1-((R)-1-(2-methyl-3-fluorophenyl)propyl)-N2-methyl-4-oxoazetidine-1,2-dicarboxamide]	< 10	H (“H” indicates 101-1000)	H (“H” indicates 101-1000)	G (“G” indicates 1-100)
CC[C@@H](NC(=O)N1C(=O)[C@H](Cc2ccnc(N)c2)[C@H]1C(=O)N(C)c1ccn(C)n1)c1ccc(C)c(Cl)c1 [Compound 1-129, (2S,3R)-3-((2-aminopyridin-4-yl)methyl)-N2-(1-methyl-1H-pyrazol-3-yl)-N1-((R)-1-(3-chloro-4-methylphenyl)propyl)-N2-methyl-4-oxoazetidine-1,2-dicarboxamide]	< 10	H (“H” indicates 101-1000)	H (“H” indicates 101-1000)	G (“G” indicates 1-100)
CC[C@@H](NC(=O)N1C(=O)[C@H](Cc2ccnc(N)c2)[C@H]1C(=O)N(C)c1ccn(C)n1)c1cccc(F)c1F [Compound 1-134, (2S,3R)-3-((2-aminopyridin-4-yl)methyl)-N2-(1-methyl-1H-pyrazol-3-yl)-N1-((R)-1-(2,3-difluorophenyl)propyl)-N2-methyl-4-oxoazetidine-1,2-dicarboxamide]	< 10	H (“H” indicates 101-1000)	I (“I” indicates > 500)	G (“G” indicates 1-100)
CC[C@@H](NC(=O)N1C(=O)[C@H](Cc2ccnc(N)c2)[C@H]1C(=O)N(C)c1ccn(C)n1)c1ccc(C)c(F)c1 [Compound 1-136, (2S,3R)-3-((2-aminopyridin-4-yl)methyl)-N2-(1-methyl-1H-pyrazol-3-yl)-N1-((R)-1-(3-fluoro-4-methylphenyl)propyl)-N2-methyl-4-oxoazetidine-1,2-dicarboxamide]	< 10	H (“H” indicates 101-1000)	H (“H” indicates 101-1000)	G (“G” indicates 1-100)
CC[C@@H](NC(=O)N1C(=O)[C@H](Cc2cc(C)nc(N)c2)[C@H]1C(=O)N(C)c1cnn(C)c1)c1cc(C)cc(F)c1 [Compound 1-184, (2S,3R)-3-((2-amino-6-methylpyridin-4-yl)methyl)-N2-(1-methyl-1H-pyrazol-4-yl)-N1-((R)-1-(3-fluoro-5-methylphenyl)propyl)-N2-methyl-4-oxoazetidine-1,2-dicarboxamide]	< 10	H (“H” indicates 101-1000)	I (“I” indicates > 500)	G (“G” indicates 1-100)

More lines, main results first:

IC50 (Factor XIa) [nM]	Ratio: Thrombin/FXIa (Thrombin)	Ratio: FXa/FXIa (Factor Xa)	Structure (SMILES)	Ratio: Trypsin/FXIa (Trypsin)
< 10	H (“H” indicates 101-1000)	I (“I” indicates > 500)	CC[C@@H](NC(=O)N1C(=O)[C@H](Cc2cc(C)nc(N)c2)[C@H]1C(=O)N(C)c1ccn(C)n1)c1cc(C)ccc1F [Compound 1-143, (2S,3R)-3-((2-amino-6-methylpyridin-4-yl)methyl)-N2 (1-methyl-1H-pyrazol-3-yl)-N1-((R)-1-(2-fluoro-5-methylphenyl)propyl)-N2-methyl-4-oxoazetidine-1,2-dicarboxamide]	G (“G” indicates 1-100)
< 10	H (“H” indicates 101-1000)	I (“I” indicates > 500)	CC[C@@H](NC(=O)N1C(=O)[C@H](Cc2cc(C)nc(N)c2)[C@H]1C(=O)N(C)c1ccn(C)n1)c1cc(F)ccc1F [Compound 1-144, (2S,3R)-3-((2-amino-6-methylpyridin-4-yl)methyl)-N2-(1-methyl-1H-pyrazol-3-yl)-N1-((R)-1-(2,5-difluorophenyl)propyl)-N2-methyl-4-oxoazetidine-1,2-dicarboxamide]	G (“G” indicates 1-100)
< 10	H (“H” indicates 101-1000)	I (“I” indicates > 500)	CC[C@@H](NC(=O)N1C(=O)[C@H](Cc2cc(C)nc(N)c2)[C@H]1C(=O)N(C)c1ccn(C)n1)c1cccc(F)c1F [Compound 1-146, (2S,3R)-3-((2-amino-6-methylpyridin-4-yl)methyl)-N2-(1-methyl-1H-pyrazol-3-yl)-N1-((R)-1-(2,3-difluorophenyl)propyl)-N2-methyl-4-oxoazetidine-1,2-dicarboxamide]	G (“G” indicates 1-100)
< 10	I (“I” indicates > 500)	I (“I” indicates > 500)	CC[C@@H](NC(=O)N1C(=O)[C@H](Cc2cc(C)nc(N)c2)[C@H]1C(=O)N(C)c1ccnn1C)c1cccc(F)c1F [Compound 1-151, (2S,3R)-3-((2-amino-6-methylpyridin-4-yl)methyl)-N2-(1-methyl-1H-pyrazol-5-yl)-N1-((R)-1-(2,3-difluorophenyl)propyl)-N2-methyl-4-oxoazetidine-1,2-dicarboxamide]	G (“G” indicates 1-100)
< 10	I (“I” indicates > 500)	I (“I” indicates > 500)	CC[C@@H](NC(=O)N1C(=O)[C@H](Cc2cc(C)nc(N)c2)[C@H]1C(=O)N(C)c1ccnn1C)c1cc(F)ccc1C [Compound 1-162, (2S,3R)-3-((2-amino-6-methylpyridin-4-yl)methyl)-N2-(1-methyl-1H-pyrazol-5-yl)-N1-((R)-1-(5-fluoro-2-methylphenyl)propyl)-N2-methyl-4-oxoazetidine-1,2-dicarboxamide]	G (“G” indicates 1-100)
< 10	I (“I” indicates > 500)	I (“I” indicates > 500)	CC[C@@H](NC(=O)N1C(=O)[C@H](Cc2cc(C)nc(N)c2)[C@H]1C(=O)N(C)c1ccnn1C)c1cc(F)ccc1F [Compound 1-163, (2S,3R)-3-((2-amino-6-methylpyridin-4-yl)methyl)-N2-(1-methyl-1H-pyrazol-5-yl)-N1-((R)-1-(2,5-difluorophenyl)propyl)-N2-methyl-4-oxoazetidine-1,2-dicarboxamide]	G (“G” indicates 1-100)
< 10	H (“H” indicates 101-1000)	I (“I” indicates > 500)	CC[C@@H](NC(=O)N1C(=O)[C@H](Cc2cc(C)nc(N)c2)[C@H]1C(=O)N(C)c1cnn(C)c1)c1cc(F)ccc1F [Compound 1-182, (2S,3R)-3-((2-amino-6-methylpyridin-4-yl)methyl)-N2-(1-methyl-1H-pyrazol-4-yl)-N1-((R)-1-(2,5-difluorophenyl)propyl)-N2-methyl-4-oxoazetidine-1,2-dicarboxamide]	G (“G” indicates 1-100)
